From article PMC8959576 (Frontiers in Immunology, 2022)

What was measured:
[1] = cited from earlier work
Description: A number of studies have shown that lipopeptides have a significant mucosal adjuvant effect ([36]–[38]). MALP-2, the mycoplasma-derived lipopeptide, elevated the level of sIgA in BALF and vaginal lavages when intranasal co-administration with a soluble antigen ([25]).

[2] = system: TLR2; conditions: cited from earlier work
Description: In recent years, a variety of lipopeptides have been designed and synthesized to exert adjuvant effects through activating TLR2 ([18]–[20]). […] The TLR2 activity of FSL-1 can reach 4 times that of MALP-2, while Pam2CSK4 is the ...

[3] = system: BALB/c mice; test: Intranasal immunization with SARS-CoV-2 rRBD plus lipopeptide, specific antibody ELISA; conditions: for RBD-specific serum IgG / RBD-specific serum IgA: intranasal rRBD with or without lipopeptide; for RBD-specific serum IgG: n=5, Figure 8A; for RBD-specific serum IgA: n=5, Figure 8B; for RBD-specific serum IgG1 compared with rRBD alone group: n=5, Figure 8C
Description: (§2) For OVA immunization, mice were divided into 7 groups randomly. Mice were the mice were anesthetized with pentobarbital sodium (50 mg/kg) and then intranasally immunized with PBS, OVA (10 μg), OVA (10 μg) plus one of the following lipopeptides: LP1-30, LP1-34, LP2-2 and LP2-3 or OVA plus Pam2CSK4 on day 0, 14, 28. […] For SARS-CoV-2 recombinant RBD (rRBD) immunization, mice were intranasally immunized at two-week intervals with PBS, rRBD, rRBD plus LP1-34, rRBD plus LP2-2 or rRBD plus Pam2CSK4. Two weeks post the final immunization, mice were sacrificed and sera, saliva, stomach homogenates, intestinal lavage fluid and vaginal wash were collected for further analysis.
(§3) Specific IgG and sIgA levels were determined by standard indirect ELISA. 96-well flat bottom plates were coated with OVA or rRBD and incubated overnight at 4°C. After blocking with 5% BSA in PBST, the diluted samples were added into the plates and incubated at 37°C for 1h. HRP-conjugated goat anti-mouse IgG, IgG1, IgG2a or IgA was used as a secondary antibody. TMB substrate solution was added each well and incubated about 5-10 min. Then, the reaction was ended by adding stop solution. Finally, the optical density was detected by at 450nm in a micro-plate reader (Thermo Scientific).

[4] = system: BALB/c mice; test: Intranasal immunization with OVA plus lipopeptide, specific antibody ELISA; conditions: for serum OVA-specific IgG2a levels / serum OVA-specific IgG response compared with Pam2CSK4: intranasal OVA plus lipopeptide; for serum OVA-specific IgG2a levels: n=5, Figure 4H; for serum OVA-specific IgA / serum OVA-specific IgG: intranasal OVA (10 μg) plus lipopeptide, day 0, 14, 28, sera 14 days after final immunization, compared with OVA alone; for serum OVA-specific IgA / serum OVA-specific IgG / serum OVA-specific IgG response compared with Pam2CSK4 / vaginal OVA-specific IgG compared with Pam2CSK4: n=5; for OVA-specific sIgA in BALF compared with Pam2CSK4: n=5, Figures 5J, K; for vaginal OVA-specific IgG compared with Pam2CSK4: vaginal wash, only adjuvanted with LP2-2 reached significance
Description: as §2, §3

[5] = system: BALB/c mice; assay type: in vivo, mouse; conditions: splenic lymphocytes, 10 μg/mL peptide, 48 h, n=5, Figure 6
[6] = system: RBD-ACE2 interaction; test: SARS-CoV-2 neutralizing antibody detection (ELISA) after rRBD immunization; conditions: for rRBD-induced SARS-CoV-2 neutralizing antibody in sera (inhibition of RBD-ACE2 interaction): n=5, compared with rRBD alone group, Figures 9A, B
Description: For SARS-CoV-2 recombinant RBD (rRBD) immunization, mice were intranasally immunized at two-week intervals with PBS, rRBD, rRBD plus LP1-34, rRBD plus LP2-2 or rRBD plus Pam2CSK4. Two weeks post the final immunization, mice were sacrificed and sera, saliva, stomach homogenates, intestinal lavage fluid and vaginal wash were collected for further analysis.
SARS-CoV-2 neutralizing antibody detection was performed according to the manufacturer’s instruction (zybio). Briefly, the diluted sera, BALF or nasal wash mixed with HRP-conjugated RBD were added into the hACE2-coated plate, and then the plate was incubated at 37°C for 1h. After washing the plate, the TMB substrate was added and incubated at 37°C for 10min. Finally, the reaction was ended by adding the stop solution and the absorbance was measured with a micro-plate reader (Thermo Scientific) at 450 nm.

[7] = system: SARS-CoV-2 pseudovirus; conditions: in vivo
[8] = target: T1, HEK-Blue mTLR2 cells (TLR2) (Mus musculus, UniProt Q9QUN7); test: TLR2 signaling assay (SEAP activity, HEK-Blue detection); assay type: cell-based; conditions: 14 h at 37°C, read at 620 nm, n=3, Figure 2A
T1 construct: host or cells: HEK-Blue mTLR2 cells (HEK293-derived reporter line)
Description: HEK-Blue™ detection was prepared according to manufacturer’s instruction. Briefly, the lipopeptides were added into a flat-bottom 96-well plate (20μL per well) and endotoxin-free water was used as a negative control. Then HEK-Blue™ mTLR2 cells were suspended in HEK-Blue™ detection and added into the plate (180μL per well, 5×10^4 cells). After incubation at 37°C for 14h, the SEAP activity was measured by a spectrophotometer at 620nm.

[9] = system: BMDCs; test: Cytokines assay (ELISA of BMDC supernatants); assay type: cell-based, mouse; conditions: lipopeptide 1 μg/mL, 48 h, n=3, Figure 3G
Description: (§1) Bone marrow-derived dendritic cells (BMDCs) were isolated using methods described previously ([26], [27]). Briefly, the cells were obtained by flushing the femurs of female BALB/C mice, then differentiated in RPMI 1640 medium containing 10% FBS and supplemented with IL-4 (10ng/mL) and GM-CSF (10ng/mL) for 7 days at 37°C in 5% CO2.
BMDCs (4 × 10^6 cells/well in 4mL RMPI-1640 medium) were stimulated with either synthetic lipopeptide (1 μg/mL) or PBS for 48 h. The expressions of IL-1β, TNF-α and IL-12 were analyzed by ELISA kit according to the manufacturer’s instructions.

[10] = system: BMDCs; test: Cell viability assay (MTT); assay type: cell-based, mouse; conditions: test concentrations 10-200μg/mL, 48 h, n=3, Figure S3A
Description: The cell viability was analyzed by MTT assay. Briefly, BMDCs were cultured with gradient dilutions of each lipopeptide for 48 h. After that, 20 μL of a MTT solution (5 mg/ml) were added per well and incubated at 37°C for 4 h. Then, the mixture was removed from the well and 100 μL DMSO were added. The absorbance was detected at a wavelength of 570 nm. % surviving cells = Mean optical absorption of cells exposed to the lipopeptide/Mean optical absorption of control cells × 100.
as §1

[11] = system: BMDCs; test: BMDC maturation surface markers by flow cytometry; assay type: cell-based, mouse; conditions: BMDCs stimulated 2 days, FACS, Figures 3A-D
Description: as §1
BMDCs were collected after being treated with each lipopeptidet for 48h. The expressions of surface markers on BMDCs were detected by FCM with a FACS Canto II (BD Biosciences). The cells were stained with CD11c-FITC (Biolegend, 117306), CD86-PerCP (Biolegend, 105026), CD80-APC (Biolegend, 104714) and CD40-PE (Biolegend, 124610) at 4°C for 30min. After washing with PBS, the expression of costimulatory molecules was detected by flow cytometer.

T1 sequence (Q9QUN7 25-784): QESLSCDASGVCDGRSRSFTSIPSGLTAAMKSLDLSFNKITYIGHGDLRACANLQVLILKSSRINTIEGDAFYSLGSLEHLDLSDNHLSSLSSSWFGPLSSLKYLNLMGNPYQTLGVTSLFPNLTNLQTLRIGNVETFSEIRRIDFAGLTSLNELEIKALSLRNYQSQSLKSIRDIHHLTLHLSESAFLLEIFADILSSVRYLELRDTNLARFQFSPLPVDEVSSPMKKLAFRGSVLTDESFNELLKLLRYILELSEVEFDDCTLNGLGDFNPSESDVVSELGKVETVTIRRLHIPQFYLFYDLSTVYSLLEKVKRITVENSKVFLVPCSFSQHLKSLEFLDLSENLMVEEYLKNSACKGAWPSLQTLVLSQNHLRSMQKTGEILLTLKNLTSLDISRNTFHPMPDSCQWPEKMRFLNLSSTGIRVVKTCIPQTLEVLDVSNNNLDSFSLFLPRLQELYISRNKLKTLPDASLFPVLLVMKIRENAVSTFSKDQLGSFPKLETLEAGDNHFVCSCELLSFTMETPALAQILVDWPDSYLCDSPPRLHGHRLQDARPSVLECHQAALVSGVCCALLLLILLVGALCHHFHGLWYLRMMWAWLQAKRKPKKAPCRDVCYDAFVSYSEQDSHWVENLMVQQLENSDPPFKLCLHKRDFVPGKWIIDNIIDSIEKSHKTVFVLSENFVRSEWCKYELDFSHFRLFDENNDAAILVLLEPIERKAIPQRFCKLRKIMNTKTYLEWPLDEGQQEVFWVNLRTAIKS

Substance: FSL-1
- EV71-specific IgG and IgA in serum, nasal washes, BALF, and feces compared with the control group ([1]; intranasal, inactivated EV71 vaccine plus FSL-1): higher level
- TLR2 activity of FSL-1 relative to that of MALP-2 [2]: 4 times

Substance: FSL-2
- TLR2 activity of FSL-2 relative to that of FSL-1 [2]: 80%

Substance: MALP-2
- sIgA in BALF and vaginal lavages ([1]; intranasal co-administration with a soluble antigen): elevated

Substance: Pam2CSK4 [reference compound]
- RBD-specific serum IgG [3]: significantly improved
- RBD-specific serum IgA [3]: significantly improved
- RBD-specific serum IgG1 compared with rRBD alone group [3]: elevated
- RBD-specific serum IgG2a compared with rRBD alone group ([3]; n=5, Figure 8D): elevated
- serum OVA-specific IgG2a levels [4]: elevated
- IFN-γ-forming OVA257-264-specific CD8+ T cell response [5]: slightly elevated
- IFN-γ-forming OVA323-339-specific CD4+ T cell response [5]: slightly elevated
- rRBD-induced SARS-CoV-2 neutralizing antibody in sera (inhibition of RBD-ACE2 interaction) [6]: significantly elevated
- SARS-CoV-2 pseudovirus neutralizing antibody titers in serum [7]: significantly augment
- TLR2 agonist potency rank among the four lipopeptides (FSL-1, FSL-2, MALP-2, Pam2CSK4) [2]: most potent TLR2 agonist

Substance: Pam2Cys-SEFAHPRHG [LP2-2, novel synthetic lipopeptide]
- RBD-specific serum IgG [3]: significantly improved
- RBD-specific serum IgA [3]: significantly improved
- RBD-specific serum IgG1 compared with rRBD alone group [3]: elevated
- RBD-specific serum IgG2a compared with rRBD alone group ([3]; n=5, Figure 8D): elevated
- serum OVA-specific IgA [4]: significantly increased
- serum OVA-specific IgG [4]: significantly increased
- serum OVA-specific IgG response compared with Pam2CSK4 [4]: more robust
- serum OVA-specific IgG2a levels [4]: elevated
- OVA-specific sIgA in BALF compared with Pam2CSK4 [4]: higher level
- vaginal OVA-specific IgG compared with Pam2CSK4 [4]: higher level
- rRBD-induced SARS-CoV-2 neutralizing antibody in sera (inhibition of RBD-ACE2 interaction) [6]: significantly elevated
- SARS-CoV-2 pseudovirus neutralizing antibody titers in serum [7]: significantly augment
- SEAP activity compared with Pam2CSK4 [8]: more increased SEAP activity than Pam2CSK4

Substance: Pam2Cys-SEFQATYAP [LP2-3, novel synthetic lipopeptide]
- serum OVA-specific IgA [4]: significantly increased
- serum OVA-specific IgG [4]: significantly increased
- serum OVA-specific IgG response compared with Pam2CSK4 [4]: more robust
- serum OVA-specific IgG2a levels [4]: elevated
- SEAP activity compared with Pam2CSK4 [8]: more increased SEAP activity than Pam2CSK4

Substance: Pam2Cys-SHYAPLPDS [LP1-34, novel synthetic lipopeptide]
- ability to enhance the level of RBD-specific mucosal sIgA and IgG compared with Pam2CSK4 ([3]; intranasal rRBD plus lipopeptide, n=5): stronger
- RBD-specific serum IgG [3]: significantly improved
- RBD-specific serum IgA [3]: significantly improved
- RBD-specific serum IgG1 compared with rRBD alone group [3]: elevated
- RBD-specific serum IgG2a compared with rRBD alone group ([3]; n=5, Figure 8D): elevated
- rank of RBD-specific IgG2a response among LP1-34, LP2-2 and Pam2CSK4 ([3]; n=5, Figure 8D): highest
- serum OVA-specific IgA [4]: significantly increased
- serum OVA-specific IgG [4]: significantly increased
- OVA-specific sIgA in BALF compared with Pam2CSK4 [4]: higher level
- vaginal OVA-specific IgG compared with Pam2CSK4 [4]: higher level
- levels of IL-12 from BMDCs compared with Pam2CSK4 [9]: higher levels
- ability of BALF and nasal wash to inhibit RBD interaction with ACE2 ([6]; n=5, Figures 9C, D): improved
- rRBD-induced SARS-CoV-2 neutralizing antibody in sera (inhibition of RBD-ACE2 interaction) [6]: significantly elevated
- SARS-CoV-2 pseudovirus neutralizing antibody titers in serum [7]: significantly augment
- SEAP activity compared with Pam2CSK4 [8]: more increased SEAP activity than Pam2CSK4

Substance: Pam2Cys-SKHANNTHA [LP1-14, novel synthetic lipopeptide]
- cytotoxicity on BMDCs (MTT) [10]: slightly cytotoxic
- SEAP activity compared with Pam2CSK4 [8]: more increased SEAP activity than Pam2CSK4

Substance: Pam2Cys-SLARRNDTN [LP1-30, novel synthetic lipopeptide]
- anti-lipopeptide IgG antibodies in sera ([4]; OVA+LP1-30 group, ELISA, n=5, Figure S4): did not reach statistical significance
- serum OVA-specific IgA [4]: significantly increased
- serum OVA-specific IgG [4]: significantly increased
- vaginal OVA-specific IgG compared with Pam2CSK4 [4]: higher level
- levels of IL-12 from BMDCs compared with Pam2CSK4 [9]: higher levels
- stimulating effect on costimulatory molecule expression of BMDCs compared with Pam2CSK4 [11]: more potent stimulating effect
- SEAP activity compared with Pam2CSK4 [8]: more increased SEAP activity than Pam2CSK4
